According to patent US20070185215A1, “Pharmaceutical composition containing obovatol as an active ingredient for the prevention and treatment of neurodegenerative diseases” (priority 2006, published 2007):

Key:
[1] = system: BV-2 murine microglial cell line; assay: Inhibition of nitric oxide production in LPS-activated microglia (Griess reaction); assay type: cell-based; conditions: BV-2 cells, 100 ng/ml LPS, 24 hours
Experimental: (§1) The BV-2 murine microglial cell line, obtained from Prof. Eui-Ju, Choi, School of Life Sciences and Technology in Korea University, Korea, was treated with 100 ng/ml of LPS (lipopolysaccharide), known to activate microglial cells, in the presence of 1 μg/ml or 10 μg/ml obovatol for 24 hours, and then the nitric oxides secreted into the culture media were quantitatively analyzed using a Griess reaction method to determine the activity of the microglia. In detail, 50 μl of the microglial culture medium was reacted with 50 μl of the Griess reagent [1% sulfanilamide/0.1% naphthylethylene diamine dihydrochloride/2% phosphoric acid] at room temperature for 10 min, followed by measuring absorbance at 540 nm with the aid of a microplate reader (Anthos Labtec Instruments GmbH Salzburg, Austria). For comparison, magnolol, known to have a neuroprotective effect, was also tested in the same manner. Using NaNO2 as a standard material, inhibition rates of the test materials were calculated for the production of nitric oxides. Also, MTT assay was conducted to measure cytotoxicity in order to determine whether or not the inhibitory activity against microglial activity was attributed to cytotoxicity.

[2] = system: BV-2 murine microglial cell line; assay: MTT assay for cytotoxicity; assay type: cell-based; conditions: concentrations as high as 30˜50 μg/ml
Experimental: as §1

SD rats = assay: Acute oral toxicity assay in rats; assay type: in vivo
Experimental: Using six-week-old specific pathogen-free (SPF) SD rats, an acute toxicity assay was conducted. The rats were divided into groups of two rats. After being dissolved in injectable saline, the obovatol, obtained in Example 1, was orally administered once in a dosage of 1 g/kg/ml to the rat groups. Afterwards, observations were made of the death, clinical symptoms, and weight changes of the animals, and serological and serobiochemical assays were conducted. Also, an autopsy was carried out to examine abnormalities of the abdominal and thoracic organs with the naked eye.

[3] = Solubility (physical and chemical properties); assay type: physicochemical

Molecule	inhibition at 1 µg/mL ([1]; Mus musculus, 1 μg/ml compound, read-out: Inhibition Rates (%) of Nitric Oxide Production) [%]	inhibition at 10 µg/mL ([1]; Mus musculus, 10 μg/ml compound, read-out: Inhibition Rates (%) of Nitric Oxide Production) [%]	Inhibition Rates (%) of Nitric Oxide Production ([1]; 1 μg/ml compound) [%]	Inhibition Rates (%) of Nitric Oxide Production ([1]; 10 μg/ml compound) [%]	Cytotoxicity as measured by MTT assay [2]	Noticeable clinical symptoms or death (SD rats; SD rats, oral, once, 1 g/kg/ml)	Toxicity in weight change, serological assay, serobiochemical assay, autopsy observations (SD rats; SD rats, oral, once, 1 g/kg/ml)	Dose causing no toxic effects (SD rats; rat, in vivo, po) [mg/kg]	Solubility ([3]; Alcohol, DMSO)	Solubility ([3]; Hexane, water)
C=CCc1ccc(O)c(-c2cc(CC=C)ccc2O)c1 [Magnolol, magnolol, reference compound]	13.1	59	–	–	–	–	–	–	–	–
obovatol	–	–	29.8	83.3	did not exhibit cytotoxicity	None of the animals	not observed	≤ 500	Soluble	Insoluble
